In patent US20130224239A1, “ALCOHOLIC EXTRACT OF FUNGI OF GENUS […] AND USE THEREOF” (KING SAUD UNIVERSITY, priority 2011, published 2013):
≈ marks a conversion by molar mass, not a printed value. Entries after “also recorded” stand apart in the source; their conditions may differ. Marks after values point to notes of the source that are not given here.

Legend:
[1] = test system: Staphylococcus aureus infected wounds; test: Wound healing activity, excision wound model; format: in vivo, guinea pig
Protocol: Swiss albino mice (20-25 g), male Sprague-Dawley rats (160-180 g) and male guinea pigs (240-260 g) were employed in the study. The animals were left for 2 weeks at room conditions to ensure stabilization before use. They were maintained on standard pellet diet and water ad libitum throughout the experiment. • a) Acute Toxicity: Mice were divided into groups of 6 and the methanol extracts of C. blakesleeana, C. elegans and C. homothallica were administered orally in increasing doses. […] Rats of the 1^St group were given a vehicle (1% v/v Tween 80) in a dose of 5 ml kg^−1 and left as normal control. Rats of the 2nd, 3rd, and 4th groups were administered the methanol extracts of C. blakesleeana, C. elegans and C. homothallica, respectively in a dose of 200 mg kg^−1. All medications were administered orally via the aid of an oral tube for 35 days. […] At the end of the experimental period, blood samples (2 mL) were collected from the retro-orbital venous plexus of each rat (under ether anesthesia) into clean centrifuge tubes. The blood samples were allowed to clot at room temperature for 30 min after which they were centrifuged at 10,000 rpm for 5 minutes. Sera were separate with Pasteur pipette into sterile serum sample tubes and used for biochemical assay.
Measurement of Liver and Kidney Function Markers: • Liver functions were evaluated by measuring the serum activity of aspartate aminotransferase (AST) and alanine aminotransferase (ALT) following the method of Reitman and Frankel, Am. J. Clin. Path., 28: 55-60, alkaline phosphatase enzyme (ALP) by the method of Babson et al., Clinical Chemistry, 12: 482-490. Serum levels of total bilirubin, total proteins and albumin were also assayed. Globulin was obtained from the difference between total proteins and albumin. Serum concentrations of uric acid, urea and creatinine were determined colormetrically as measures of kidney functions. All measurements were carried out by protocols well known in the art. • c) Wound Healing Activity: The excision wound model was used to monitor wound contraction and wound closure time. Four groups of male guinea pigs were used in the experiment with 6 animals in each group. At the beginning of the experiment, the dorsal skin of each guinea pig was shaved with an electric clipper. After 24 hours, all animals were anesthetized by diethyl ether and the shaved areas were sterilized with 70% alcoholic solution. A predetermined dorsal area (15 mm×20 mm) was inflicted by cutting away a full thickness of skin (2 mm depth) using toothed forceps, scalpel and pointed scissors. A fresh surgical blade was used for the perpendicular cut in each animal and tension of skin was kept constant during the procedure. Local infection with Staphylococcus aureus was introduced into wounds using 0.5 mL of 10^8 bacteria mL^−1 inoculums. The wounds were left undressed to the open environment and the animals were kept individually in separate cages. • Wounds treatment: Wounds were air exposed and treatment began 24 h after injury. Wounds of the control animals were treated with the vehicle (1% v/v Tween 80). Guinea pigs of the second and third group were treated with total alcohol extract of C. elegans and the isolated compound (adenosine) in a concentration of 5 mg mL^−1, while animals of the fourth group were medicated with latamoxef (Moxalactam)® in a concentration of 30 μg mL^−1 (Reference group). The vehicle, extract, and reference drug were applied topically on the wound surface once a day for 18 days. […] of each tested material was applied slowly, using an insulin syringe, from the central point extending outside the wound area to ensure inclusion of the edges. Swabs were taken on day 5 to confirm the presence of the expected organisms in the pus. • Assessment of wound healing: The wound areas were measured while the animals were under anaesthesia on days 0, 4, 7, 10, 14, and 18 post-wounding by tracing the wound areas onto a transparent tracing paper. […]

[2] = test system: Salmonella typhimuium (RCMB 0104); test: Antimicrobial screening, disc diffusion; format: cell-based; settings: Salmonella typhimuim; compounds isolated from Cunninghamella elegans
Protocol: The alcoholic extracts obtained were used for testing their antimicrobial activity. Each extract (0.5 g) was dissolved in 10 ml water. Same concentrations for the successive extracts (using diethyl ether, chloroform, ethyl acetate and n-butanol) were also prepared.
The representatives of Gram negative bacteria, namely Salmonella typhimuium (RCMB 0104), Escherichia coli (RCMB 0103), Pseudomonas aeruginosa (RCMB 0102) and Gram positive bacteria, namely Bacillus subtilis (RCMB 0107), Staphylococcus aureus (RCMB 0106), Streptococcus pyogenes (RCMB 0109), unicellular fungi, namely Candida albicans (RCMB 5002) and filamentous fungi, namely Aspergillus fumigatus (RCMB 2003) and Penicllium expansum (RCMB 1006) were used as test organisms (RCMB: The Regional Center for Mycology and Biotechnology, Al-azhar University Nasser City, Cairo, Egypt).
(§1) For antimicrobial screening the well known disc diffusion and agar well diffusion methods were used, together with the determination of minimum inhibitory concentration (MIC), see Duguid et al., Microbial Infections, The English Language Book Society, Churchill Livingston, Edingburgh, London, 1978; vol. 1, page 110.
Disc diffusion method: The agar disc diffusion method is employed for the determination of antimicrobial activities of the extracts of the investigated fungal species. Sterilized paper discs (Whatman No. 1) ([…]) were separately soaked in the extracts and transferred onto the surface of growth media seeded with the test organism. After incubation period, following suitable conditions for the test organism, the diameter of the inhibition zone around the discs was measured in millimeters.
Each fungal species was grown on malt extract media at 28±2° C. for 14 days. The metabolites of the fungal species were screened for antimicrobial activity.

Staphylococcus aureus = test: Minimum inhibitory concentration, agar well diffusion; format: cell-based; settings: against Staphylococcus aureus
Text: as §1
Agar well diffusion method: On the other hand, the agar well diffusion method was employed for determination of the minimum inhibitory concentration (MIC). The test organisms were separately seeded in the agar medium. The wells (10 mm in diameter) were cut from the agar and […] (different concentrations) was transferred into them. After incubation period, following suitable conditions for the test organism, the diameter of the inhibition zone around the discs was measured in millimeters. The obtained result was the mean of three experiments.
The minimum inhibitory concentration (MIC) of Cunninghamella blakesleeana, C. elegans, C. homothallica and successive extracts and isolated compounds of Cunninghamella elegans against Staphylococcus aureus was determined.
Minimum inhibitory concentration (MIC): The lowest concentration of an antimicrobial agent that will inhibit a visible growth of a microorganism after overnight incubation.

[3] = topical 5 mg mL^−1 once a day, n = 6
[4] = topical 5 mg mL^−1 once a day, n = 6, listed as compound 1 (adenosine)

Compound: Nc1ncnc2c1ncn2C1OC(CO)C(O)C1O (centres unmarked) [Compound 4, 2-(6-amino-9H-purine-9-yl)-5-(hydroxymethyl)oxolane-3,4-diol]
- wound contraction ([1]; Day 14, topical 5 mg mL^−1): 76.50%
- Wound area on day 0 ([1]; day 0, topical 5 mg mL^−1 once a day, n = 6): 300 ± 0.0 mm^2
- Wound area on day 4 ([1]; day 4, topical 5 mg mL^−1 once a day, n = 6): 241.2 ± 4.23* mm^2
- Wound area on day 7 ([1]; day 7, topical 5 mg mL^−1 once a day, n = 6): 168.1 ± 2.18** mm^2
- Wound area on day 10 [1, 3]: 83.4±3.16 mm^2
- Wound area on day 10 [1, 4]: 85.6 ± 4.13*** mm^2
- Wound area on day 14 [1, 3]: 22.4±1.15 mm^2
- Wound area on day 14 [1, 4]: 23.3 ± 1.11*** mm^2
- Wound area on day 18 [1, 3]: 0.0 mm^2
- Wound area on day 18 [1, 4]: 0.0 ± 0.0 mm^2
- wound healing effect (in words) ([1]; topical 5 mg mL−1 on excised infected wound): effective in healing excision type of wounds; also recorded: good wound healing effect
- Diameter of inhibition zone [2]: 00.0 mm
- Minimum inhibitory concentration (Staphylococcus aureus): 020 µg/mL (≈ 74.8 µM)
- MIC (Staphylococcus aureus; read-out: Minimum inhibitory concentration): 20 µg/mL (≈ 74.8 µM)
